Tests used:
Format in all cases: biochemical
[1] = molecular target: recombinant human PI3Kγ ((aa144-1102)-6His) (Homo sapiens (Human), UniProt P48736); test: Enzymatic activity assay for recombinant human PI3Kγ (ADP-Glo); details: 1.2 nM PI3Kγ, 20 μM ATP, 80 μM DiC8-PIP2, ADP-Glo
Protocol: (§1) Enzymatic Activity Assay for Recombinant Human PI3K α, β, δ and γ.
(§2) The activity of recombinant human PI3Kγ ((aa144-1102)-6His) and PI3Kα, β, δ (6-His(p110-p85α)) was determined by measuring the ADP level after phosphorylation of DiC8-PIP2 using a commercially available ADP-Glo™ kit from Promega. The assay was carried out in white low volume 384 well plates in a final volume of 14 μl at R.T. The assay conditions contained the following: 50 mM Tris buffer pH 7.4, 2.1 mM DTT, 3 mM MgCl2, 0.05% CHAPS, 20 μM ATP, 80 μM DiC8-PIP2 and 1.2 nM PI3Kα, β, γ or 0.6 nM PI3Kδ. […] Routinely, inhibitors were pre-incubated with 3 μl of enzyme for 15 min prior to the addition of 2 μl substrate mixture for a further 60 min enzyme reaction. The phosphorylation was stopped with the addition of 3 μl ADP-Glo™ reagent (stop solution) followed by a 40 min incubation. Prior to detection 6 μl of ADP-Glo™ Kinase Detection Reagent was added and the plates were read in a micro plate reader using a Luminescence filter. All additions were followed by a short centrifugation step.

[2] = molecular target: recombinant human PI3Kδ (6-His(p110-p85α)) (Homo sapiens (Human), UniProt O00329); test: Enzymatic activity assay for recombinant human PI3Kδ (ADP-Glo); details: 0.6 nM PI3Kδ, 20 μM ATP, 80 μM DiC8-PIP2, ADP-Glo
recombinant human PI3Kδ (6-His(p110-p85α)), sequence (O00329 whole entry): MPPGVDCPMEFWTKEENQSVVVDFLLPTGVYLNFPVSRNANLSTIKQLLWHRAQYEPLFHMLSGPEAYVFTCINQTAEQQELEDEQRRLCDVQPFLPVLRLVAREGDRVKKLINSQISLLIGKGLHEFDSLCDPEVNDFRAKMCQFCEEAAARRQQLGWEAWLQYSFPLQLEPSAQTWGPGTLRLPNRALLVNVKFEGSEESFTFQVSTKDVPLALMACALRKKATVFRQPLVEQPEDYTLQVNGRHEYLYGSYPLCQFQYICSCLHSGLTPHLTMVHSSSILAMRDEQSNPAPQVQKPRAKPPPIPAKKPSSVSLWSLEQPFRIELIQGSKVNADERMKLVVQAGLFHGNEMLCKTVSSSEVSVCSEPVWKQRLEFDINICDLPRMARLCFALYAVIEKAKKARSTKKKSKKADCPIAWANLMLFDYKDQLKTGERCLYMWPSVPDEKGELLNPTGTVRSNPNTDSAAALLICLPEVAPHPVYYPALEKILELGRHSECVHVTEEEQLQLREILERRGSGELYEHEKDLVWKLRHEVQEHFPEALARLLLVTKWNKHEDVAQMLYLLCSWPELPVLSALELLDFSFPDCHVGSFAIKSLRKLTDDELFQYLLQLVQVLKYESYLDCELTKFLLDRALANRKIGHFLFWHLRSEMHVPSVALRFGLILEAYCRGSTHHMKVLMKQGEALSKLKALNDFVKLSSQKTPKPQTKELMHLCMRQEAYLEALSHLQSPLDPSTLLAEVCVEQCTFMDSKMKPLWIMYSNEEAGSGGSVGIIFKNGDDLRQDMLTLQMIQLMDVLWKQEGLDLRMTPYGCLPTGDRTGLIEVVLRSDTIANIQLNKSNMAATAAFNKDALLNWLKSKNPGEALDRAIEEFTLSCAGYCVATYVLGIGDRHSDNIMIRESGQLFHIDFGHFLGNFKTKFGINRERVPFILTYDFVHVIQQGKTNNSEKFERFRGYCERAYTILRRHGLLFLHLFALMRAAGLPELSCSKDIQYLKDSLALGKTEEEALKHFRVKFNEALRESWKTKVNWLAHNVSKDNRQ
recombinant human PI3Kδ (6-His(p110-p85α)), sequence (P27986 whole entry partner): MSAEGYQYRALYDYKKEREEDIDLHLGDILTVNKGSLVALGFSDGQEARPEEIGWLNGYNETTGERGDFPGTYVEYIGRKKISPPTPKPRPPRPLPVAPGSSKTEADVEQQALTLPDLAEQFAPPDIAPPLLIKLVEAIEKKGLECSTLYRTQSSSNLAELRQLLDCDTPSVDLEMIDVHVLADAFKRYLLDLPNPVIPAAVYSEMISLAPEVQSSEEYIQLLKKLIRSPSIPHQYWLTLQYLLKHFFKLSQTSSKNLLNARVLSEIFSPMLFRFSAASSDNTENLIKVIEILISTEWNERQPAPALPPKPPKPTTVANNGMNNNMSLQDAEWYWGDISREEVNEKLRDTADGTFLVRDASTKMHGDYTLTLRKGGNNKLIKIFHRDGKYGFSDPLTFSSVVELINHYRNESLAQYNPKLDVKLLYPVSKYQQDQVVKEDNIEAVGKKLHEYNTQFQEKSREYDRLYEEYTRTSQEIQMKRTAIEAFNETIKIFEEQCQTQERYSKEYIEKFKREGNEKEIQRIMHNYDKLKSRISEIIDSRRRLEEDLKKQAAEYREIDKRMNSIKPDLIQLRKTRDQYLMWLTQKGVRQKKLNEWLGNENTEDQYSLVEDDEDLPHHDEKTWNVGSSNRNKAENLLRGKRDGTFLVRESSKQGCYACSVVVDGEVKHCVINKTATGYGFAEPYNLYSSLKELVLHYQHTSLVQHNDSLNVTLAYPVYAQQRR
Protocol: as §1, §2

[3] = molecular target: recombinant human PI3Kα (6-His(p110-p85α)) (Homo sapiens (Human), UniProt P42336); test: Enzymatic activity assay for recombinant human PI3Kα (ADP-Glo); details: 1.2 nM PI3Kα, 20 μM ATP, 80 μM DiC8-PIP2, ADP-Glo
recombinant human PI3Kα (6-His(p110-p85α)), sequence (P42336 whole entry): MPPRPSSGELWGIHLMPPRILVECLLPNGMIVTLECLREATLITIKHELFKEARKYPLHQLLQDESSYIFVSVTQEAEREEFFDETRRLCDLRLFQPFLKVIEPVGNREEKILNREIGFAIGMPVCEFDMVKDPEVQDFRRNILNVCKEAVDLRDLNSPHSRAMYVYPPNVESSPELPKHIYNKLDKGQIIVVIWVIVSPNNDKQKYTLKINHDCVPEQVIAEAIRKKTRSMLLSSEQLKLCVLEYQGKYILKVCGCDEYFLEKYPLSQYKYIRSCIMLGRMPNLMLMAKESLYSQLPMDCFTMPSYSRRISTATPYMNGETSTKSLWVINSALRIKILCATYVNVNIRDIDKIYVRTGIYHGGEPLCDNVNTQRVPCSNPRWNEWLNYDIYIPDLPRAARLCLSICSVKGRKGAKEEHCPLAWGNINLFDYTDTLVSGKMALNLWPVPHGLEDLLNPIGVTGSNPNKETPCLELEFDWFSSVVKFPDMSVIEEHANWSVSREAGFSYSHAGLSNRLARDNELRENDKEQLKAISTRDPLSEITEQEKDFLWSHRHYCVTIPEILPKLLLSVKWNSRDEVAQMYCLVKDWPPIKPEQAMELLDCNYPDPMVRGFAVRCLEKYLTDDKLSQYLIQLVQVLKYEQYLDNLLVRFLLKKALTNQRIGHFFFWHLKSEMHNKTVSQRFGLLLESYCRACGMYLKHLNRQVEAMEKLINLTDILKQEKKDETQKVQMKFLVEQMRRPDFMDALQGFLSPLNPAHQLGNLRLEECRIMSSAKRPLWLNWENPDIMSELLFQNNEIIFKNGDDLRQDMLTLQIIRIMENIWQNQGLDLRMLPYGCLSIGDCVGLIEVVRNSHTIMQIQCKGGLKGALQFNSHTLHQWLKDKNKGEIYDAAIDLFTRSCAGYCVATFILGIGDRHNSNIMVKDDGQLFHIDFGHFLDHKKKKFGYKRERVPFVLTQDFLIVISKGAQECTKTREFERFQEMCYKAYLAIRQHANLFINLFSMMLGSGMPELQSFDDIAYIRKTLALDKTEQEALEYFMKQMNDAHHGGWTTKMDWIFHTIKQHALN
recombinant human PI3Kα (6-His(p110-p85α)), sequence (P27986 whole entry partner): as the sequence (P27986 whole entry partner) above
Protocol: as §1
as §2, with “PI3Kδ. Potential inhibitors were made up in DMSO and then diluted in the assay to give a final concentration of not exceeding 1% (v/v) DMSO.” for “PI3Kδ.”

[4] = molecular target: recombinant human PI3Kβ (6-His(p110-p85α)) (Homo sapiens (Human), UniProt P42338); test: Enzymatic activity assay for recombinant human PI3Kβ (ADP-Glo); details: 1.2 nM PI3Kβ, 20 μM ATP, 80 μM DiC8-PIP2, ADP-Glo
recombinant human PI3Kβ (6-His(p110-p85α)), sequence (P42338 whole entry): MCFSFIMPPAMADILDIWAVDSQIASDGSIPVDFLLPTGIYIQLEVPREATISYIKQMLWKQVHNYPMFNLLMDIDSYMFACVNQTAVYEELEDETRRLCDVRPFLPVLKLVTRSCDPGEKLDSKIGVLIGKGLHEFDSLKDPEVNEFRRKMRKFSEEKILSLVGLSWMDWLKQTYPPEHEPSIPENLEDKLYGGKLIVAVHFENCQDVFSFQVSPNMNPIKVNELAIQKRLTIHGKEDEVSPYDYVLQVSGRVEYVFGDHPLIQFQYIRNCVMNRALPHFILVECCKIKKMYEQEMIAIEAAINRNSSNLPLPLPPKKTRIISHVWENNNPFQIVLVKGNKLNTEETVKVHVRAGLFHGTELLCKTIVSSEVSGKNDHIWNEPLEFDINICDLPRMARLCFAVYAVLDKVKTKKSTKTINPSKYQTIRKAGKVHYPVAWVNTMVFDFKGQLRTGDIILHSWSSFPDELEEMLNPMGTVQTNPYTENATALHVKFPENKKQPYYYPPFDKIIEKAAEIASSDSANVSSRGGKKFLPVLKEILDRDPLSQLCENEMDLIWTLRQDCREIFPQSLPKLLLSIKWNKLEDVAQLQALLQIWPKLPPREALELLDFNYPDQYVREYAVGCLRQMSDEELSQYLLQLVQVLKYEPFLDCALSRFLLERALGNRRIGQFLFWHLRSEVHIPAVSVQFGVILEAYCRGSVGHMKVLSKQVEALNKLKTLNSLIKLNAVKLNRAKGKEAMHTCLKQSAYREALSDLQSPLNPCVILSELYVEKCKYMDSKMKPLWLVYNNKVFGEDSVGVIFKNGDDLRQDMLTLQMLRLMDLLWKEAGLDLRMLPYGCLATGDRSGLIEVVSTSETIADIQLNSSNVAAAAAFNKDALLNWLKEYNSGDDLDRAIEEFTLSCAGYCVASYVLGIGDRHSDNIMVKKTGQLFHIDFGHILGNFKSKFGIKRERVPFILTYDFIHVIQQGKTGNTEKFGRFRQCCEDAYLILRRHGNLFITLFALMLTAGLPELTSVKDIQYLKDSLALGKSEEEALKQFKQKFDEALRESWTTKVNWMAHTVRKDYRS
recombinant human PI3Kβ (6-His(p110-p85α)), sequence (P27986 whole entry partner): as the sequence (P27986 whole entry partner) above
Protocol: as §1
as §2, with “PI3Kδ. Potential inhibitors were made up in DMSO and then diluted in the assay to give a final concentration of not exceeding 1% (v/v) DMSO.” for “PI3Kδ.”

recombinant human PI3Kγ ((aa144-1102)-6His), sequence (P48736 144-1102): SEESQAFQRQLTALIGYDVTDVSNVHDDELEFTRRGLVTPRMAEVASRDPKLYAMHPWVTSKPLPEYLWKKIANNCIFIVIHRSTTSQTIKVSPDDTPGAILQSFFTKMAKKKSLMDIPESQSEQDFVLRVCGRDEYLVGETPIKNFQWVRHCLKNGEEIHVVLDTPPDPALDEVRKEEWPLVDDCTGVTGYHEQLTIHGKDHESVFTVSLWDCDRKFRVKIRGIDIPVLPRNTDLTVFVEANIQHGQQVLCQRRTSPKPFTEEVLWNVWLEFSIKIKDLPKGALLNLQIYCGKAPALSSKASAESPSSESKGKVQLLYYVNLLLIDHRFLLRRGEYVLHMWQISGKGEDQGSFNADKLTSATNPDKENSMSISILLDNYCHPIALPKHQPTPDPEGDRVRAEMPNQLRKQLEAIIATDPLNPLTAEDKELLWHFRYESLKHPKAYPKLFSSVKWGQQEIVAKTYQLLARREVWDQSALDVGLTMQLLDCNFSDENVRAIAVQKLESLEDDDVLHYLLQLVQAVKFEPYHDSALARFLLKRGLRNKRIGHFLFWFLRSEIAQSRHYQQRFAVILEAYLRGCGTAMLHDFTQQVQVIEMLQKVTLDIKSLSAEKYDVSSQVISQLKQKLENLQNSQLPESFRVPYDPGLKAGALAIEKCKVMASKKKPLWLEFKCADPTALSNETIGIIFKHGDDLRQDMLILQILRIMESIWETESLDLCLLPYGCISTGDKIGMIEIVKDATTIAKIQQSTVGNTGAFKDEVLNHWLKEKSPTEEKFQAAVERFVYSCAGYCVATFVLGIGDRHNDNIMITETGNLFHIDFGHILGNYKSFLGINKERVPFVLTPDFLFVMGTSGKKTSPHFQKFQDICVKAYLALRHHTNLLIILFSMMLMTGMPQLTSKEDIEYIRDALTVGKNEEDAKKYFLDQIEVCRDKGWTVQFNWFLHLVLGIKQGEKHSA

Row | Structure (SMILES) | IC50 [1] [nM] | IC50 [2] [nM] | IC50 [3] [nM] | IC50 [4] [nM]
1 | Cc1nc(Nc2cccc(N3CCNC3=O)n2)sc1-c1cc2c(c(S(=O)(=O)NC(C)C)c1)C(=O)N([C@@H](C)C(F)(F)F)C2 [Example 30, 6-(4-Methyl-2-{[6-(2-oxoimidazolidin-1-yl)pyridin-2-yl]amino}-1,3-thiazol-5-yl)-3-oxo-N-(propan-2-yl)-2-[(2S)-1,1,1-trifluoropropan-2-yl]-2,3-dihydro-1H-isoindole-4-sulfonamide] | 1.4 | 0.5 | 74 | 722
2 | Cc1nc(Nc2cccc(N3CCCC3=O)n2)sc1-c1cc2c(c(S(=O)(=O)NC3COC3)c1)C(=O)N([C@@H](C)C1CC1)C2 [Example 32, 2-[(1S)-1-Cyclopropylethyl]-6-(4-methyl-2-{[6-(2-oxopyrrolidin-1-yl)pyridin-2-yl]amino}-1,3-thiazol-5-yl)-N-(oxetan-3-yl)-3-oxo-2,3-dihydro-1H-isoindole-4-sulfonamide] | 1.3 | 0.7 | 140 | 2060
3 | Cc1nc(Nc2cccc(N3CCOC3=O)n2)sc1-c1cc2c(c(S(=O)(=O)NC3COC3)c1)C(=O)N([C@@H](C)C1CC1)C2 [Example 33, 2-[(1S)-1-Cyclopropylethyl]-6-(4-methyl-2-{[6-(2-oxo-1,3-oxazolidin-3-yl)pyridin-2-yl]amino}-1,3-thiazol-5-yl)-N-(oxetan-3-yl)-3-oxo-2,3-dihydro-1H-isoindole-4-sulfonamide] | 1.2 | 1.4 | 472 | 3420
4 | Cc1nc(Nc2cccc(N3CCNC3=O)n2)sc1-c1cc2c(c(S(=O)(=O)NC3COC3)c1)C(=O)N([C@@H](C)C1CC1)C2 [Example 34, 2-[(1S)-1-Cyclopropylethyl]-6-(4-methyl-2-{[6-(2-oxoimidazolidin-1-yl)pyridin-2-yl]amino}-1,3-thiazol-5-yl)-N-(oxetan-3-yl)-3-oxo-2,3-dihydro-1H-isoindole-4-sulfonamide] | 0.8 | 0.5 | 30 | 927
5 | Cc1nc(Nc2cccc(N3CCCOC3=O)n2)sc1-c1cc2c(c(S(=O)(=O)NC3COC3)c1)C(=O)N([C@@H](C)C1CC1)C2 [Example 35, 2-[(1S)-1-Cyclopropylethyl]-6-(4-methyl-2-{[6-(2-oxo-1,3-oxazinan-3-yl)pyridin-2-yl]amino}-1,3-thiazol-5-yl)-N-(oxetan-3-yl)-3-oxo-2,3-dihydro-1H-isoindole-4-sulfonamide] | 1 | 0.9 | 53 | 484
6 | Cc1nc(Nc2cccc(N3CCCCC3=O)n2)sc1-c1cc2c(c(S(=O)(=O)NC3COC3)c1)C(=O)N([C@@H](C)C(F)(F)F)C2 [Example 36, 6-(4-Methyl-2-{[6-(2-oxopiperidin-1-yl)pyridin-2-yl]amino}-1,3-thiazol-5-yl)-N-(oxetan-3-yl)-3-oxo-2-[(2S)-1,1,1-trifluoropropan-2-yl]-2,3-dihydro-1H-isoindole-4-sulfonamide] | 1.2 | 1 | 50 | 113
7 | Cc1nc(Nc2cccc(N3CCCC3=O)n2)sc1-c1cc2c(c(S(=O)(=O)NC3COC3)c1)C(=O)N([C@@H](C)C(F)(F)F)C2 [Example 37, 6-(4-Methyl-2-{[6-(2-oxopyrrolidin-1-yl)pyridin-2-yl]amino}-1,3-thiazol-5-yl)-N-(oxetan-3-yl)-3-oxo-2-[(2S)-1,1,1-trifluoropropan-2-yl]-2,3-dihydro-1H-isoindole-4-sulfonamide] | 1.1 | 0.6 | 67 | 395
8 | CNS(=O)(=O)c1cc(-c2sc(Nc3cccc(N4CCCOC4=O)n3)nc2C)cc2c1C(=O)N(C(C)(C)C)C2 [Example 38, 2-tert-Butyl-N-methyl-6-(4-methyl-2-{[6-(2-oxo-1,3-oxazinan-3-yl)pyridin-2-yl]amino}-1,3-thiazol-5-yl)-3-oxo-2,3-dihydro-1H-isoindole-4-sulfonamide] | 0.8 | 1.8 | 84 | 65
9 | CNS(=O)(=O)c1cc(-c2sc(Nc3cccc(N4CCOCC4=O)n3)nc2C)cc2c1C(=O)N([C@@H](C)C(C)(C)C)C2 [Example 39, 2-[(2S)-3,3-Dimethylbutan-2-yl]-N-methyl-6-(4-methyl-2-{[6-(3-oxomorpholin-4-yl)pyridin-2-yl]amino}-1,3-thiazol-5-yl)-3-oxo-2,3-dihydro-1H-isoindole-4-sulfonamide] | 1.4 | 8.9 | 485 | 10400
10 | Cc1nc(Nc2cccc(N3CCNCC3=O)n2)sc1-c1cc2c(c(S(C)(=O)=O)c1)C(=O)N([C@@H](C)C1CC1)C2 [Example 40, 2-[(1S)-1-Cyclopropylethyl]-5-(4-methyl-2-{[6-(2-oxopiperazin-1-yl)pyridin-2-yl]amino}-1,3-thiazol-5-yl)-7-(methylsulfonyl)-2,3-dihydro-1H-isoindol-1-one] | 1.6 | 1.7 | 104 | 729
11 | CNS(=O)(=O)c1cc(-c2sc(Nc3cccc(N4CCNCC4=O)n3)nc2C)cc2c1C(=O)N([C@@H](C)C1CC1)C2 [Example 41, 2-[(1S)-1-Cyclopropylethyl]-N-methyl-6-(4-methyl-2-{[6-(2-oxopiperazin-1-yl)pyridin-2-yl]amino}-1,3-thiazol-5-yl)-3-oxo-2,3-dihydro-1H-isoindole-4-sulfonamide] | 1.3 | 0.9 | 72 | 298
12 | CNS(=O)(=O)c1cc(-c2sc(Nc3cccc(N4C[C@H](C)NCC4=O)n3)nc2C)cc2c1C(=O)N([C@@H](C)C1CC1)C2 [Example 42, 2-[(1S)-1-Cyclopropylethyl]-N-methyl-6-[4-methyl-2-({6-[(5S)-5-methyl-2-oxopiperazin-1-yl]pyridin-2-yl}amino)-1,3-thiazol-5-yl]-3-oxo-2,3-dihydro-1H-isoindole-4-sulfonamide] | 1 | 0.8 | 69 | 286
13 | CNS(=O)(=O)c1cc(-c2sc(Nc3cccc(N4CCN[C@H](C)C4=O)n3)nc2C)cc2c1C(=O)N([C@@H](C)C1CC1)C2 [Example 43, 2-[(1S)-1-Cyclopropylethyl]-N-methyl-6-[4-methyl-2-({6-[(3R)-3-methyl-2-oxopiperazin-1-yl]pyridin-2-yl}amino)-1,3-thiazol-5-yl]-3-oxo-2,3-dihydro-1H-isoindole-4-sulfonamide] | 1 | 1 | 40 | 284
14 | CNS(=O)(=O)c1cc(-c2sc(Nc3cccc(N4CCN[C@@H](C)C4=O)n3)nc2C)cc2c1C(=O)N([C@@H](C)C1CC1)C2 [Example 44, 2-[(1S)-1-Cyclopropylethyl]-N-methyl-6-[4-methyl-2-({6-[(3S)-3-methyl-2-oxopiperazin-1-yl]pyridin-2-yl}amino)-1,3-thiazol-5-yl]-3-oxo-2,3-dihydro-1H-isoindole-4-sulfonamide] | 1.2 | 1.5 | 72 | 518
15 | CNS(=O)(=O)c1cc(-c2sc(Nc3cccc(N4C[C@@H](C)NCC4=O)n3)nc2C)cc2c1C(=O)N([C@@H](C)C1CC1)C2 [Example 45, 2-[(1S)-1-Cyclopropylethyl]-N-methyl-6-[4-methyl-2-({6-[(5R)-5-methyl-2-oxopiperazin-1-yl]pyridin-2-yl}amino)-1,3-thiazol-5-yl]-3-oxo-2,3-dihydro-1H-isoindole-4-sulfonamide] | 0.8 | 1 | 33 | 257

Reference: patent publication US10961236B2, “(S)-2-(1-cyclopropylethyl)-5-(4-methyl-2-((6-(2-oxopyrrolidin-1-yl)pyridin-2-yl)amino) thiazol-5-yl)-7-(methylsulfonyl)isoindolin-1-one as a phosphatidylinositol 3-kinase inhibitor” (AstraZeneca AB, priority 2016, dated 2021)
